Assays:
[1] = target: T1, Progesterone receptor (Homo sapiens) (UniProt P06401); assay: Relative binding affinity for human progesterone receptor in MCF-7 cell cytosols compared to Org 2058; assay type: cell-based
T1 sequence (whole entry): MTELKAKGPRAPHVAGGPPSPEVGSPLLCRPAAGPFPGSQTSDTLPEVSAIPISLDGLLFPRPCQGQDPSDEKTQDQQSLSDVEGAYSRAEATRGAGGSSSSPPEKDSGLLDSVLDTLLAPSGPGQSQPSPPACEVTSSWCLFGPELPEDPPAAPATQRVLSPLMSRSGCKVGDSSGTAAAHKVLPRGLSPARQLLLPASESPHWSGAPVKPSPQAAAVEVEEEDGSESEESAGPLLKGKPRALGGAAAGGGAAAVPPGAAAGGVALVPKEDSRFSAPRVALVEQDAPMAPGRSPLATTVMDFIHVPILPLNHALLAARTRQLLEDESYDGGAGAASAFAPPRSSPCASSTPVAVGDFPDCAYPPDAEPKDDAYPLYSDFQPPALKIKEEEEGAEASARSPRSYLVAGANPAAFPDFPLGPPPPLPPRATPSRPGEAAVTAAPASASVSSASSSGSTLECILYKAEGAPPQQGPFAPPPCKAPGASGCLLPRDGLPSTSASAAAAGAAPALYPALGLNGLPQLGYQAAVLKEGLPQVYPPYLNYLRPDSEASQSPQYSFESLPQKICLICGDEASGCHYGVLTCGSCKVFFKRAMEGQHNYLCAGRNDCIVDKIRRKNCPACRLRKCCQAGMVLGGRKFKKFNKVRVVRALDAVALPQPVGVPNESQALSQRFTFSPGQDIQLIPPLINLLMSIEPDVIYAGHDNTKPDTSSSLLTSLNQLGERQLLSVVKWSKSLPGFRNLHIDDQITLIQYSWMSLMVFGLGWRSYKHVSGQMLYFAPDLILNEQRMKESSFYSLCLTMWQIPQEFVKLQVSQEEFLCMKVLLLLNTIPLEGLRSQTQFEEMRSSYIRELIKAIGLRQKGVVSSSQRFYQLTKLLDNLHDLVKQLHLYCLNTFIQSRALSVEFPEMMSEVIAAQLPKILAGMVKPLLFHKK

[2] = Ratio of compound to that of glucocorticoid receptor binding and progesterone receptor binding was determined

Row | SMILES | Affinity [1] | Ratio [2]
1 | C[C@]12C[C@H](c3ccc4c(c3)OCCO4)C3=C4CCC(=O)C=C4CCC3C1CC[C@@]2(O)C#Cc1ccc(N2CCCC2=O)cc1 (some centres undefined) | 0.2% | 490
2 | CC#C[C@]1(O)CC[C@H]2[C@@H]3CCC4=CC(=O)CCC4=C3[C@@H](c3ccc(N(C)C)cc3)C[C@@]21C | 36% | 5.4
3 | CN(C)c1ccc(/C=C/[C@]2(O)CCC3C4CCC5=CC(=O)CCC5=C4[C@@H](c4ccc(N(C)C)cc4)C[C@@]32C)cc1 (some centres undefined) | 6.1% | 1
4 | C[C@]12C[C@H](c3ccc4c(c3)OCO4)C3=C4CCC(=O)C=C4CCC3C1CC[C@@]2(O)C#Cc1ccc(S(C)(=O)=O)cc1 (some centres undefined) | 0.4% | 488

Second part, the compound after the results:

Row | Affinity [1] | Ratio [2] | SMILES
5 | 2% | 44 | CN(C)c1ccc([C@H]2C[C@@]3(C)C(CC[C@@]3(O)C#Cc3ccc(S(C)(=O)=O)cc3)C3CCC4=CC(=O)CCC4=C32)cc1 (some centres undefined)
6 | 16% | 6 | CN(C)c1ccc([C@H]2C[C@@]3(C)C(CC[C@@]3(O)C#Cc3ccccc3)C3CCC4=CC(=O)CCC4=C32)cc1 (some centres undefined)
7 | 1.7% | 49 | CN(C)c1ccc(C#C[C@]2(O)CCC3C4CCC5=CC(=O)CCC5=C4[C@@H](c4ccc(N(C)C)cc4)C[C@@]32C)cc1 (some centres undefined)

Reference: ChEMBL document CHEMBL1130518, “11,21-Bisphenyl-19-norpregnane derivatives are selective antiglucocorticoids” (Bioorg Med Chem Lett, 1997)
